Data from patent publication US12673918B2, “Small molecule RPN13 inhibitors with antitumor properties” (The Johns Hopkins University, priority 2019, dated 2026).

Key:
ES2 cells = test: Annexin V apoptosis flow cytometry, ES2 cells; format: cell-based, human; details: ES2, 12 hr
Protocol: FIG. 7D illustrates surface PS staining of 10^5 ES2 cells treated with compounds for 12 hr and re-suspended in binding buffer and labeled with Annexin V-PE and 7-AAD at RT for 15 min and analyzed by flow cytometry (Becton Dickinson, Mountain View, CA).
FIG. 16D illustrates ES2 cells were treated with compounds at indicated doses for 12 hr then re-suspended in 100 μL binding buffer with 5 μL of Annexin V-PE and 5 μL of 7-AAD to examine early apoptosis. After a 15 min incubation at RT, the cells were analyzed by flow cytometry using a FACSCalibur and CellQuest software.

MCF7 = details: human
intracellular GSH = test: Total GSH assay, SKOV3 cells; format: cell-based, human; details: SKOV3, 0.5 μM, 12 hr
Protocol: Luciferase and GSH assays: Sub-confluent cultures of cells were transfected with 4Ub-FL or FL plasmid using Lipofectamine 2000 reagent (Life Technologies). Cells were seeded at 10,000 cells/well in 96-wells plate 48 hr post transfection and incubated with compounds or vehicle (DMSO) at the doses and times indicated. Luciferase activity in cell lysate was determined with a luciferase assay kit (Promega) according to the manufacturer's instructions. Bioluminescence was measured by using a Glomax Multidetection system (Promega). Glutathione was assayed using the Promega GSH assay kit (V6611).

NF-κB = details: 293T cells stably expressing NFkB-Luc reporter; previously observed (13); read-out: IC50 of NF-κB signaling inhibition; cited from earlier work
SKOV3 cells = test: XTT cytotoxicity assay, SKOV3; format: cell-based, human; details: Homo sapiens, SK-OV-3; Table 1; XTT assay; read-out: IC50 SKOV3
Text: The impact of substituents of the aromatic ring on the potency of molecules was also examined. The presence of either an electron withdrawing group (EWG) or an electron donating group (EDG) influences the reactivity of a Michael acceptor towards the target protein but can also impact specificity/selectivity.

[1] = Initial toxicity testing in female Balb/c mice; format: in vivo
Protocol: Initial toxicity testing was performed in female Balb/c mice with RA375. Groups of mice (n=3) were injected intra peritoneally (i.p.) with a single dose of RA375 (5, 10, 20, 40, 60, 100 mg/Kg in 25% β-hydroxypropyl cyclodextrin) and endpoints evaluated included clinical observation and body weight for one week.

[2] = test system: proteasome (4UbFL reporter); test: 4UbFL proteasome reporter, transfected 293T cells; format: cell-based; details: 4 hours
Text: FIG. 9A illustrates 293T cells in 96 well plates transiently transected with the 4UbFL plasmid and 48 hr later treated with the indicated doses of each compound for 4 hr. Cells were lysed and luciferase activity assessed using a luminometer.
To monitor proteasome activity in living cells, a construct was used expressing a fusion protein comprising four tandem repeats of ubiquitin fused in frame with firefly luciferase (4UbFL) (41) to cause this otherwise stable reporter protein to undergo rapid proteolytic degradation via the proteasome. To assess their capacity to inhibit cellular proteasome function, 293T cells were transiently transfected with the 4UbFL construct and then […] treated with compounds for 4 hours prior to assay of luciferase activity. Like bortezomib, RA375 induced a dramatic increase in bioluminescence, consistent with stabilization of 4UbFL, in a dose dependent manner. At very high concentrations the luciferase activity dropped because of cellular toxicity.
Reporter assays: Sub-confluent cultures of cells were transfected with 4Ub-FL or FL plasmid using TransIT 2020 reagent (Minis Bio). […] Luciferase activity in cell lysate was determined with a luciferase assay kit (Promega) according to the manufacturer's instructions. Bioluminescence was measured by using a Glomax Multidetection system (Promega).

HT3 = test: MTT cytotoxicity assay, HT3; format: cell-based; details: Homo sapiens, HT-3, Table 3, 48 hr, Cervical (HPV −ve)
Protocol: (§1) The cytotoxic efficacy of selected compounds was assessed against multiple myeloma (MM) cell lines, as this is a validated clinical target for the licensed proteasome inhibitors.
(§2) Cell lines and cytotoxicity assays: All cell lines were obtained from the American Type Culture Collection (ATCC) and cultured in the specified medium supplemented with 10% fetal bovine serum, 100 IU/mL penicillin, and 100 μg/mL streptomycin at 37° C. in a humidified 5% CO2/95% air incubator. […] To assess drug cytotoxicity, cells were seeded at 2,500 cells/well (10,000 cells/well for MM lines) in 100 μL medium in 96-well plate and after 24 treated with compounds for 72 h, incubated according to the manufacturer's protocol with the Thiazolyl Blue Tetrazolium Bromide (Sigma, M2128) and A570 measured using a Benchmark Plus microplate spectrophotometer (BIO-RAD). IC50 data was analyzed by Graphpad Prism software. In the chirality studies the cells were treated with compounds for 48 h, and the cells were incubated and measured via the preceeding protocols.

JHU11 = test: MTT cytotoxicity assay, JHU11; format: cell-based; details: Table 3, 48 hr, Head & Neck (HPV −ve)
Protocol: as §1, §2

VU147T = test: MTT cytotoxicity assay, VU147T; format: cell-based; details: Table 3, 48 hr, Head & Neck (HPV +ve)
Protocol: (§3) Cell lines and cytotoxicity assays: All cell lines were obtained from the American Type Culture Collection (ATCC) and cultured in the specified medium supplemented with 10% fetal bovine serum, 100 IU/mL penicillin, and 100 μg/mL streptomycin at 37° C. in a humidified 5% CO2/95% air incubator. […] To assess drug cytotoxicity, cells were seeded at 2,500 cells/well (10,000 cells/well for MM lines) in 100 μL medium in 96-well plate and after 24 treated with compounds for 72 h, incubated according to the manufacturer's protocol with the Thiazolyl Blue Tetrazolium Bromide (Sigma, M2128) and A570 measured using a Benchmark Plus microplate spectrophotometer (BIO-RAD). IC50 data was analyzed by Graphpad Prism software.

JHU29 = test: MTT cytotoxicity assay, JHU29; format: cell-based; details: Table 3, 48 hr, Head & Neck (HPV −ve)
Protocol: as §1, §2

SSC25 = test: MTT cytotoxicity assay, SSC25; format: cell-based; details: Table 3, 48 hr, Head & Neck (HPV −ve)
Protocol: as §3

C33A = test: MTT cytotoxicity assay, C33A; format: cell-based; details: Homo sapiens, C-33-A, Table 3, 48 hr, Cervical (HPV −ve)
Protocol: as §1, §2

[3] = PEG400: Cremophor: Tween40 vs b-HPCD
in vivo = format: in vivo, C57BL/6 mice; details: female, C57BL/6, mouse, in vivo; suggested from toxicities at higher dose; read-out: MTD in tumor-bearing animals
Protocol: To assess therapeutic efficacy the ID8-VegfDefb29 cell line was utilized in a syngeneic mouse model of ovarian cancer expressing luciferase (62). ID8 was first derived from spontaneous malignant transformation of C57BL/6 mouse ovarian surface epithelial cells in vitro (69). ID8-Vegf Defb29 cells represent a more aggressive variant of ovarian cancer in which VEGF provides vascular growth which is augmented by the presence of DEFB29 (62). C57BL/6 mice were injected i.p. with ID8-VegfDefb29 cells stably expressing firefly luciferase (0.5×10^6 cells) in PBS (100 μL). After 72 hrs, mice were imaged for their basal luminescence levels using an IVIS200 imager. Mice with visible luminescence were randomized into equal groups including vehicle (n=8), RA414 (3 mg/Kg, n=8), RA414 (10 mg/Kg, n=8) and treated every three days for up to 3 weeks. Mice were imaged every week to measure bioluminescence expressed by tumor after administration of luciferin. […] On day 24 two mice were sacrificed after collection of ascites, and the remainder required euthanasia on day 31 (FIGS. 17A and 17B). Administration of RA414 at 10 mg/kg (3 doses delivered every three days) regressed the tumor completely in 50% of the mice with less than 10% weight loss. […] This is consistent with proteasome inhibition within the ascites cells by the […] RA414 treatment regimen.
Tumor Studies: Female C57BL6 or Nude mice were inoculated with 10^6 ES2-Luciferase cells i.p. in 100 uL PBC, or ID8-VegfDefb29 syngeneic mouse model of ovarian cancer expressing luciferase (62) i.p. in 100 μL PBS. At day 3, mice were imaged for basal level luminescence activity with a Xenogen IVIS 200 after injection i.p. with luciferin (0.3 mg in 100 water). Mice were randomized into two groups (n=8) and treated i.p. with compounds or vehicle (25% (w/v) β-Hydroxypropylcyclodextrin in water), and imaged again on days 7 and 14. RA375 was administered i.p. at 10 mg/Kg.

DU145 = test: MTT cytotoxicity assay, DU145; details: Homo sapiens, DU-145, read-out: cytotoxicity IC50 DU145
Protocol: as §2

Q: For `C[C@H]1/C(=C\c2ccc([N+](=O)[O-])cc2)C(=O)/C(=C/c2ccc([N+](=O)[O-])cc2)CN1C(=O)[C@@H](N)Cc1ccccc1`, which “surface display of Annexin V versus RA183” value (ES2 cells) is on record?
A: more potently activated a biomarker of early apoptosis

Q: And the “fold more cytotoxic than RA413R” value (SKOV3)?
A: 4 fold

Q: And the IC50 (MCF7)?
A: 250 nM

Q: Which “cellular total GSH levels” value (intracellular GSH) does the source give for `CC(C)C[C@H](NC(=O)[C@H](Cc1ccccc1)NC(=O)c1cnccn1)B(O)O` [Bortezomib, bortezomib, reference compound] here?
A: profoundly reduced cellular GSH levels

Q: For `N[C@@H](Cc1ccccc1)C(=O)N1C/C(=C\c2ccc([N+](=O)[O-])cc2)C(=O)/C(=C/c2ccc([N+](=O)[O-])cc2)C1` [RA183, reference compound], which IC50 (NF-κB) is on record?
A: 100 nM

Q: Which IC50 (SKOV3 cells) does the source give for `N[C@@H](Cc1ccccc1)C(=O)N1C/C(=C\c2ccc(Cl)c(Cl)c2)C(=O)/C(=C/c2ccc(Cl)c(Cl)c2)C1` [RA190, reference compound] here?
A: 75 nM

Q: Which results are given for `O=C(CCl)N[C@@H](Cc1ccccc1)C(=O)N1C/C(=C\c2ccc([N+](=O)[O-])cc2)C(=O)/C(=C/c2ccc([N+](=O)[O-])cc2)C1` [RA375]?
A: toxicity after repeated dosing ([1]; 40 mg/Kg on alternate days for two weeks): no observable toxicities or weight loss; adverse effects after single dose ([1]; female Balb/c, single i.p. dose 5-100 mg/Kg, one week observation): No adverse effects were noted; fold more potent than RA190 (4UbFL stabilization) [2]: 4 fold; fold more potent than bortezomib (4UbFL stabilization) [2]: 2 fold; IC50 (HT3): 162 nM; IC50 (JHU11): 178 nM; IC50 (VU147T): 40 nM; IC50 (JHU29): 173 nM; IC50 (SSC25): 189 nM; IC50 (C33A): 167 nM

Q: For `CC1/C(=C\c2ccc([N+](=O)[O-])cc2)C(=O)/C(=C/c2ccc([N+](=O)[O-])cc2)CN1C(=O)[C@H](Cc1ccccc1)NC(=O)CCl` (stereo partly shown) [RA414], which “solubility in formulation vehicles” value [3] is on record?
A: soluble in the PEG system only

Q: What about the MTD (in vivo) of the same compound?
A: 3 mg/kg

Q: What about the IC50 (DU145) of the same compound?
A: 17 nM
